# Measured values as given in patent US9422254B2, “Methoxyacrylate-based fungicide and methods for preparing and using the same” (priority 2008, dated 2016).
# Several values for one entry are separate records, joined by “and”; a condition that tells them apart may be missing. Equal values may be shown once.
# Columns and labels:
# [1] = test system: Pseudoperonospora cubensis; test: Fungicidal activity on potted cucumber, downy mildew; type: in vivo
# Protocol: 1. Fungicidal Activity Assay on Potted Plants at Room Temperature
# Take cucumber downy mildew and powdery mildew as examples, the assay were carried out as follows:
# 1) Pseudoperonospora cubensis: Pathogen of Cucumber Downy Mildew
# Two cucumber seedlings (the growing point had been removed) having the same growth status and in the true leaf stage were collected, sprayed with the compound of Formula (I), and dried naturally for 24 hrs for inoculation. Fresh cucumber leaves infected by downy mildew were collected, and sporangium on the back was rinsed with distilled water (about 10° C.) dipped with a brush. The obtained sporangium was prepared into a suspension (2-3×10^5 cells/mL). The suspension was sprayed uniformly with an inoculation sprayer (0.1 MPa) to the naturally-dried cucumber seedlings. Subsequently, the seedlings were cultured in an artificial climate chamber. The relative humidity was maintained at 100%, with temperature of between 15 and 20° C. 24 hrs later, the relative humidity was maintained at 90%, with temperature of between 15 and 24° C. 5 days later, compared with the control, the disease of the cucumber seedlings was graded. Based on the resultant disease index, the efficacy was calculated.
# The grading standard follows “Guidelines on efficacy evaluation of pesticides”, and the efficacy is calculated on the basis of the disease index.
# [2] = test system: Rhizoctonia solani (rice sheath blight); test: microbe, parasite or virus in culture; type: cell-based; conditions: read-out: Inhibition rate (%)
# Botrytis cinerea = test: microbe, parasite or virus in culture; type: cell-based; conditions: read-out: Inhibition rate (%)
# Sclerotinia sclerotirum = test: microbe, parasite or virus in culture; type: cell-based; conditions: read-out: Inhibition rate (%)
# [3] = test system: Colletotrichum lagenarium; test: microbe, parasite or virus in culture; type: cell-based; conditions: Colletotrichum orbiculare, read-out: Inhibition rate (%)
# Alternaria solani = test: microbe, parasite or virus in culture; type: cell-based; conditions: read-out: Inhibition rate (%)
# Alternaria alternata = test: microbe, parasite or virus in culture; type: cell-based; conditions: read-out: Inhibition rate (%)
# Fusarium moniliforme = test: microbe, parasite or virus in culture; type: cell-based; conditions: Fusarium verticillioides, read-out: Inhibition rate (%)
# Ustilaginoidea virens = test: microbe, parasite or virus in culture; type: cell-based
# [4] = test system: Cucumber brown spot (strain SDHGHB060509); test: In vivo micro-screening assay
# Text: 3. In Vivo Micro-Screening Assay
# guinea pig skin = test: Skin sensitization test; type: in vivo
# Protocol: (§1) The toxicological indexes of the compound were tested following the standard GB15670-1995 “Toxicological test methods of pesticides for registration” by Tongji Medical College, Huazhong University of Science and Technology.
# [5] = test system: Mice Polychromatic Erythrocytes; test: Micronucleus Test of Mice Polychromatic Erythrocytes; type: in vivo
# Protocol: as §1
# cucumber powdery mildew = test: Field efficacy trial of emulsifier concentrate 1, cucumber powdery mildew; type: in vivo
# Protocol: To a beaker (1000 mL), 50 g (100% basis) of the compound of Formula (I), 150 g of DMF, and 50 g of acetone were added and stirred for dissolution. To the solution, 25 g of pesticide emulsifier No. 500 and 50 g of Tween 80, 20 g of epoxidized soybean oil, and […] of toluene were added. Thus, the emulsifier concentrate 1 having 5 wt. % of the compound of Formula (I) was obtained and further packed.
# On the basis of indoor activity evaluation, field efficacy trials of the compound of Formula (I) on cucumber downy mildew, cucumber powdery mildew, and melon powdery mildew were conducted.
# [6] = test system: Cucumber scab (strain HX); test: In vivo micro-screening assay
# Protocol: To further study the fungicidal spectrum of the compound of Formula (I), indoor in vivo micro-screening assay were carried out on cucumber gray mold, cucumber scab, cucumber sclerotinia rot, cucumber brown spot, pepper phytophthora blight, and rice sheath blight.
# Cucumber scab strain: HX; cucumber brown spot strain: SDHGHB060509; cucumber sclerotinia rot strain: HGJH; pepper phytophthora blight strain: NSGP; and rice sheath blight strain: WK-1.
# Medicament to be tested and medicament of control groups were prepared as needed in a sunny morning. Cucumber gray mold, cucumber scab, cucumber brown spot, cucumber sclerotinia rot, and rice sheath blight were medicated by spray, and after air dry, pathogens of cucumber scab and of cucumber brown spot were inoculated through spraying spore suspension respectively, pathogens of cucumber gray mold, of cucumber sclerotinia rot, and of rice sheath blight were inoculated through lawn foliage. Pepper phytophthora blight was medicated and inoculated by root-irrigation. Subsequently, all seedlings were cultured in wet environment.
# After the disease of control groups were serious, spot area, disease index, and the diseased seedling rate were investigated to calculate the efficacy. Cucumber scab, cucumber brown spot, and pepper phytophthora blight were investigated by grading method. The spot extension area of cucumber gray mold and of rice sheath blight was investigated. The diseased seedling rate of cucumber sclerotinia rot was investigated. Disease index=Σ(amount of infected diseased leaves in a grade×relative value of the grade)×100/(total amount of leaves×9); Diseased seedling rate (%)=(total amount of seedlings−amount of diseased seedlings)/total amount of seedlings×100% Prevention and treatment effect (%)=(disease of control group−disease of experiment group)/disease of control group×100%
# [7] = Pseudoperonospora cubensis, secondary screening
smiles,measurement,setting,value
"CO/C=C(/C(=O)OC)c1ccccc1CSc1nc2cc(OC)ccc2s1 [Compound of Formula (I), (E)-methyl 3-methoxy-2-(2-((5-methoxy-benzothiazol-2-ylthio)methyl)phenyl)acrylate]",Efficacy (%),"[1]; 3.125 mg/L, secondary screening",69.92%
same,Efficacy (%),"[1]; 6.25 mg/L, secondary screening",82.89%
same,Efficacy (%),"[1]; 12.5 mg/L, Table 1",87.34%
same,Efficacy (%),"[1]; 12.5 mg/L, secondary screening",91.50%
same,Efficacy (%),"[1]; 25 mg/L, Table 1",94.16%
same,Efficacy (%),"[1]; 25 mg/L, secondary screening",98.15%
same,Efficacy (%),"[1]; 50 mg/L, Table 1",100%
same,Efficacy (%),"[1]; 50 mg/L, secondary screening",100%
same,Efficacy (%),"[1]; 100 mg/L, Table 1",100%
same,Efficacy (%),"[1]; 200 mg/L, Table 1",100%
same,EC50,[1]; [7],1.52 µg/mL
same,EC90,[1]; [7],9.76 µg/mL
same,preventive effect,[1]; downy mildew,good preventive effect
same,inhibition at 0.3 µg/mL,[2]; 0.3 mg/L,42.7%
same,inhibition at 3 µg/mL,[2]; 3 mg/L,62.1%
same,inhibition at 30 µg/mL,[2]; 30 mg/L,68.9%
same,inhibition at 0.3 µg/mL,Botrytis cinerea; 0.3 mg/L,42.3%
same,inhibition at 3 µg/mL,Botrytis cinerea; 3 mg/L,42.7%
same,inhibition at 30 µg/mL,Botrytis cinerea; 30 mg/L,54.9%
same,inhibition at 0.3 µg/mL,Sclerotinia sclerotirum; 0.3 mg/L,50.8%
same,inhibition at 3 µg/mL,Sclerotinia sclerotirum; 3 mg/L,61%
same,inhibition at 30 µg/mL,Sclerotinia sclerotirum; 30 mg/L,80%
same,inhibition at 0.3 µg/mL,[3]; 0.3 mg/L,42%
same,inhibition at 3 µg/mL,[3]; 3 mg/L,44.2%
same,inhibition at 30 µg/mL,[3]; 30 mg/L,50.7%
same,inhibition at 0.3 µg/mL,Alternaria solani; 0.3 mg/L,32.4%
same,inhibition at 3 µg/mL,Alternaria solani; 3 mg/L,39.2%
same,inhibition at 30 µg/mL,Alternaria solani; 30 mg/L,43.9%
same,inhibition at 0.3 µg/mL,Alternaria alternata; 0.3 mg/L,37.2%
same,inhibition at 3 µg/mL,Alternaria alternata; 3 mg/L,41.8%
same,inhibition at 30 µg/mL,Alternaria alternata; 30 mg/L,43.1%
same,inhibition at 0.3 µg/mL,Fusarium moniliforme; 0.3 mg/L,9.6%
same,inhibition at 3 µg/mL,Fusarium moniliforme; 3 mg/L,30.8%
same,inhibition at 30 µg/mL,Fusarium moniliforme; 30 mg/L,43.6%
same,in vitro effect,Ustilaginoidea virens,particularly effective
same,inhibition at 0.3 µg/mL,"Ustilaginoidea virens; Ustilaginoidea virens, 0.3 mg/L, read-out: Inhibition rate (%)",74.8%
same,inhibition at 3 µg/mL,"Ustilaginoidea virens; Ustilaginoidea virens, 3 mg/L, read-out: Inhibition rate (%)",100%
same,inhibition at 30 µg/mL,"Ustilaginoidea virens; Ustilaginoidea virens, 30 mg/L, read-out: Inhibition rate (%)",100%
same,prevention and treatment effect,[4],good prevention and treatment effect
same,Disease index,[4]; 100 mg/L,6.11
same,Efficacy (%),[4]; 100 mg/L,85.00%
same,Disease index,[4]; 500 mg/L,4.44
same,Efficacy (%),[4]; 500 mg/L,89.10%
same,Skin sensitization,guinea pig skin,Weak allergen (grade I) on guinea
same,Micronucleus Test of Mice Polychromatic Erythrocytes,[5],Negative
same,Disease index (%),"cucumber powdery mildew; 12.5 mg/L, 7th day, Average",5.9%
same,Efficacy (%),"cucumber powdery mildew; 12.5 mg/L, 7th day, Average",70.50%
same,Disease index (%),"cucumber powdery mildew; 12.5 mg/L, 7th day, No. 1-4",5.5% and 6.7% and 5.8%
same,Efficacy (%),"cucumber powdery mildew; 12.5 mg/L, 7th day, No. 1-4",71.05% and 70.59% and 71.54% and 69.71%
same,Disease index (%),"cucumber powdery mildew; 12.5 mg/L, 14th day, Average",6.8%
same,Efficacy (%),"cucumber powdery mildew; 12.5 mg/L, 14th day, Average",75.66%
same,Disease index (%),"cucumber powdery mildew; 12.5 mg/L, 14th day, No. 1-4",6.4% and 6.3% and 7.8% and 6.6%
same,Efficacy (%),"cucumber powdery mildew; 12.5 mg/L, 14th day, No. 1-4",74.80% and 76.40% and 75.73% and 76.45%
same,Disease index (%),"cucumber powdery mildew; 12.5 mg/L, 21st day, Average",12.7%
same,Efficacy (%),"cucumber powdery mildew; 12.5 mg/L, 21st day, Average",68.91%
same,Disease index (%),"cucumber powdery mildew; 12.5 mg/L, 21st day, No. 1-4",12.6% and 12.0% and 13.9% and 12.3%
same,Efficacy (%),"cucumber powdery mildew; 12.5 mg/L, 21st day, No. 1-4",67.88% and 68.34% and 69.40% and 70.29%
same,Disease index (%),"cucumber powdery mildew; 25 mg/L, 7th day, Average",3.9%
same,Efficacy (%),"cucumber powdery mildew; 25 mg/L, 7th day, Average",77.54%
same,Disease index (%),"cucumber powdery mildew; 25 mg/L, 7th day, No. 1-4",3.6% and 4.2% and 4.6% and 3.3%
same,Efficacy (%),"cucumber powdery mildew; 25 mg/L, 7th day, No. 1-4",78.48% and 76.74% and 77.57% and 77.35%
same,Disease index (%),"cucumber powdery mildew; 25 mg/L, 14th day, Average",4.0%
same,Efficacy (%),"cucumber powdery mildew; 25 mg/L, 14th day, Average",83.51%
same,Disease index (%),"cucumber powdery mildew; 25 mg/L, 14th day, No. 1-4",3.5% and 4.2% and 4.8%
same,Efficacy (%),"cucumber powdery mildew; 25 mg/L, 14th day, No. 1-4",84.35% and 83.71% and 82.85% and 83.59%
same,Disease index (%),"cucumber powdery mildew; 25 mg/L, 21st day, Average",7.0%
same,Efficacy (%),"cucumber powdery mildew; 25 mg/L, 21st day, Average",77.78%
same,Disease index (%),"cucumber powdery mildew; 25 mg/L, 21st day, No. 1-4",6.8% and 8.0% and 6.2%
same,Disease index (%),"cucumber powdery mildew; 50 mg/L, 7th day, Average",2.4%
same,Efficacy (%),"cucumber powdery mildew; 50 mg/L, 7th day, Average",85.63%
same,Disease index (%),"cucumber powdery mildew; 50 mg/L, 7th day, No. 1-4",2.1% and 2.4% and 2.8% and 2.2%
same,Efficacy (%),"cucumber powdery mildew; 50 mg/L, 7th day, No. 1-4",85.88% and 84.49% and 86.18% and 85.31%
same,Disease index (%),"cucumber powdery mildew; 50 mg/L, 14th day, Average",2.1%
same,Efficacy (%),"cucumber powdery mildew; 50 mg/L, 14th day, Average",90.99%
same,Disease index (%),"cucumber powdery mildew; 50 mg/L, 14th day, No. 1-4",2.1% and 1.8% and 2.7% and 1.9%
same,Efficacy (%),"cucumber powdery mildew; 50 mg/L, 14th day, No. 1-4",89.44% and 91.85% and 90.23% and 91.34%
same,Disease index (%),"cucumber powdery mildew; 50 mg/L, 21st day, Average",3.6%
same,Efficacy (%),"cucumber powdery mildew; 50 mg/L, 21st day, Average",89.45%
same,Disease index (%),"cucumber powdery mildew; 50 mg/L, 21st day, No. 1-4",3.2% and 3.0% and 4.4% and 3.7%
same,Efficacy (%),"cucumber powdery mildew; 50 mg/L, 21st day, No. 1-4",89.57% and 90.44% and 88.74% and 88.58%
same,Disease index (%),"cucumber powdery mildew; 100 mg/L, 7th day, Average",1.5%
same,Efficacy (%),"cucumber powdery mildew; 100 mg/L, 7th day, Average",91.67%
same,Disease index (%),"cucumber powdery mildew; 100 mg/L, 7th day, No. 1-4",1.7% and 1.2% and 1.9%
same,Efficacy (%),"cucumber powdery mildew; 100 mg/L, 7th day, No. 1-4",91.17% and 92.74% and 90.16% and 92.41%
same,Disease index (%),"cucumber powdery mildew; 100 mg/L, 14th day, Average",1.2%
same,Efficacy (%),"cucumber powdery mildew; 100 mg/L, 14th day, Average",95.23%
same,Disease index (%),"cucumber powdery mildew; 100 mg/L, 14th day, No. 1-4",0.9% and 1.3% and 1.4% and 1.0%
same,Efficacy (%),"cucumber powdery mildew; 100 mg/L, 14th day, No. 1-4",96.46% and 94.43% and 95.18% and 95.68%
same,Disease index (%),"cucumber powdery mildew; 100 mg/L, 21st day, Average",2.9%
same,Efficacy (%),"cucumber powdery mildew; 100 mg/L, 21st day, Average",91.52%
same,Disease index (%),"cucumber powdery mildew; 100 mg/L, 21st day, No. 1-4",3.3% and 2.6% and 2.8% and 3.0%
same,Efficacy (%),"cucumber powdery mildew; 100 mg/L, 21st day, No. 1-4",91.58% and 92.15% and 93.17% and 91.23%
same,prevention and treatment effect,[6],good prevention and treatment effect
same,Disease index,[6]; 100 mg/L,0
same,Efficacy (%),[6]; 100 mg/L,100.00%
same,Disease index,[6]; 500 mg/L,0
same,Efficacy (%),[6]; 500 mg/L,100.00%
